Results: ChEMBL document CHEMBL4808169, “Discovery of Potent and Fast-Acting Antimalarial Bis-1,2,4-triazines” (J Med Chem, 2021)
≈ marks a conversion by molar mass, not a printed value. Each block holds one compound with its values, some of them ahead of it. Calls of active or inactive are those of the source. The rule behind the calls is not given here.

Tests used:
Plasmodium falciparum [1] = test: microbe, parasite or virus in culture; settings: 3D7, 72 h
Description: Antimalarial activity against Plasmodium falciparum 3D7 infected in human red blood cells after 72 hrs by DAPI-staining based assay

Plasmodium berghei = test: Antiplasmodial activity against Plasmodium berghei ANKA infected in po dosed Swiss mouse administered at 2 hrs post infection and measured on day 4 by Peter's 4-day test; assay type: functional
Plasmodium falciparum [2] = test: Bactericidal activity against Plasmodium falciparum 3D7A at 10 times IC50; assay type: functional, organism-based
[3] = Kinetic solubility of compound at pH 2 by nephelometry; assay type: physicochemical; settings: buffer, read-out: Kinetic_solubility
[4] = Kinetic solubility of compound at pH 6.5 by nephelometry; assay type: physicochemical; settings: buffer, read-out: Kinetic_solubility
[5] = Intrinsic clearance in human liver microsomes assessed per mg of protein in presence of NADPH by UPLC-MS analysis; assay type: ADME, Microsome; settings: read-out: CLH
[6] = Intrinsic clearance in mouse liver microsomes in presence of NADPH by UPLC-MS analysis; assay type: ADME, Microsome
[7] = Half life in mouse liver microsomes in presence of NADPH by UPLC-MS analysis; assay type: ADME, Microsome
[8] = Half life in human liver microsomes in presence of NADPH by UPLC-MS analysis; assay type: ADME, Microsome
Plasmodium falciparum [9] = test: Antimalarial activity against Plasmodium falciparum 3D7 infected in human red blood cells at 40 uM after 72 hrs by DAPI-staining based assay relative to control; assay type: functional

Structure (SMILES): CC(C)Oc1nncc(-c2cnnc(OCCN(C)C)n2)n1
IC50 (Plasmodium falciparum [1]): 0.44 µM

Structure (SMILES): [N-]=[N+]=NCCCSc1nncc(-c2cnnc(SCCCN=[N+]=[N-])n2)n1
IC50 (Plasmodium falciparum [1]): 0.031 µM

Structure (SMILES): COCCSc1nncc(-c2cnnc(SCCN(C)C)n2)n1
IC50 (Plasmodium falciparum [1]): 0.26 µM

Structure (SMILES): C[C@H]1[C@H](OC(=O)CCC(=O)O)O[C@@H]2O[C@@]3(C)CC[C@H]4[C@H](C)CC[C@@H]1[C@@]24OO3 [ARTESUNATE]
ED50 (Plasmodium berghei): 1.37 mg/kg/day | Activity (Plasmodium falciparum [2]): Active

Structure (SMILES): CSc1nncc(-c2cnnc(SCCN(C)C)n2)n1
solubility kinetic [3]: 6.3 µg/mL (≈ 20.4 µM) | solubility kinetic [4]: 6.3 µg/mL (≈ 20.4 µM)

Structure (SMILES): c1nnc(OC2CC2)nc1-c1cnnc(OC2CC2)n1
IC50 (Plasmodium falciparum [1]): 0.89 µM

Structure (SMILES): CN(C)CCOc1nncc(-c2cnnc(OCCN(C)C)n2)n1
IC50 (Plasmodium falciparum [1]): 8.6 µM

Structure (SMILES): CCCCc1nncc(-c2cnnc(SCCN(C)C)n2)n1
IC50 (Plasmodium falciparum [1]): 0.009 µM | microsomal CLint [5]: 56 µL/min/mg | solubility kinetic [3]: 50 µg/mL (≈ 157 µM) | solubility kinetic [4]: 25 µg/mL (≈ 78.3 µM) | microsomal CLint [6]: 330 µL/min/mg | half-life [7]: 5 min | half-life [8]: 31 min

Structure (SMILES): CSc1nncc(-c2cnnc(OC(C)CN(C)C)n2)n1 (configuration not stated)
IC50 (Plasmodium falciparum [1]): 0.032 µM

Structure (SMILES): CCN(CC)CCCC(C)Nc1ccnc2cc(Cl)ccc12 (configuration not stated) [CHLOROQUINE]
Activity (Plasmodium falciparum [2]): Active

Structure (SMILES): CCCOc1nncc(-c2cnnc(OCCC)n2)n1
IC50 (Plasmodium falciparum [1]): 0.11 µM

Structure (SMILES): C#CCOc1nncc(-c2cnnc(SC)n2)n1
IC50 (Plasmodium falciparum [1]): 0.13 µM

Structure (SMILES): CN(C)CCOc1nncc(-c2cnnc(OCCC(F)(F)F)n2)n1
IC50 (Plasmodium falciparum [1]): 0.054 µM | microsomal CLint [5]: 7 µL/min/mg | solubility kinetic [3]: 50 µg/mL (≈ 139 µM) | solubility kinetic [4]: 50 µg/mL (≈ 139 µM) | microsomal CLint [6]: 33 µL/min/mg | half-life [7]: 53 min | half-life [8]: 232 min

Structure (SMILES): COCCOc1nncc(-c2cnnc(OCCOC)n2)n1
Activity (Plasmodium falciparum [9]): 100%

Structure (SMILES): CCCCc1nncc(-c2cnnc(CCCC)n2)n1
IC50 (Plasmodium falciparum [1]): 0.34 µM

Structure (SMILES): CC(C)Sc1nncc(-c2cnnc(OCCN(C)C)n2)n1
IC50 (Plasmodium falciparum [1]): 0.012 µM

Further compounds by falling IC50 (Plasmodium falciparum [1]), results first:

IC50 (Plasmodium falciparum [1]): 12 µM
Structure (SMILES): CC(CN(C)C)Oc1nncc(-c2cnnc(OC(C)CN(C)C)n2)n1 (configuration not stated)

IC50 (Plasmodium falciparum [1]): 2 µM
Structure (SMILES): CC(C)Oc1nncc(-c2cnnc(OC(C)C)n2)n1

IC50 (Plasmodium falciparum [1]): 1 µM
Structure (SMILES): CC#CCOc1nncc(-c2cnnc(OCC#CC)n2)n1

IC50 (Plasmodium falciparum [1]): 0.85 µM
Structure (SMILES): COc1nncc(-c2cnnc(SCCN(C)C)n2)n1

IC50 (Plasmodium falciparum [1]): 0.72 µM
Structure (SMILES): C[Si](C)(C)CCOc1nncc(-c2cnnc(OCC[Si](C)(C)C)n2)n1

IC50 (Plasmodium falciparum [1]): 0.5 µM
Structure (SMILES): Cc1ncsc1CCOc1nncc(-c2cnnc(OCCc3scnc3C)n2)n1

IC50 (Plasmodium falciparum [1]): 0.42 µM
Structure (SMILES): FC(F)(F)COc1nncc(-c2cnnc(OCC(F)(F)F)n2)n1

IC50 (Plasmodium falciparum [1]): 0.21 µM
Structure (SMILES): CC(C)Sc1nncc(-c2cnnc(SCCN(C)C)n2)n1

IC50 (Plasmodium falciparum [1]): 0.12 µM | microsomal CLint [5]: 9 µL/min/mg | solubility kinetic [3]: 50 µg/mL (≈ 172 µM) | solubility kinetic [4]: 25 µg/mL (≈ 85.8 µM) | microsomal CLint [6]: 118 µL/min/mg | half-life [7]: 15 min | half-life [8]: 199 min
Structure (SMILES): CCc1nncc(-c2cnnc(SCCN(C)C)n2)n1

IC50 (Plasmodium falciparum [1]): 0.093 µM
Structure (SMILES): FC(F)(F)CCOc1nncc(-c2cnnc(OCCC(F)(F)F)n2)n1

IC50 (Plasmodium falciparum [1]): 0.081 µM
Structure (SMILES): CC(C)Oc1nncc(-c2cnnc(SCCN(C)C)n2)n1

IC50 (Plasmodium falciparum [1]): 0.032 µM
Structure (SMILES): C#CCSc1nncc(-c2cnnc(SC)n2)n1

IC50 (Plasmodium falciparum [1]): 0.03 µM | microsomal CLint [5]: 25 µL/min/mg | solubility kinetic [3]: 25 µg/mL (≈ 82.4 µM) | solubility kinetic [4]: 25 µg/mL (≈ 82.4 µM) | microsomal CLint [6]: 109 µL/min/mg | half-life [7]: 16 min | half-life [8]: 69 min
Structure (SMILES): CCCCc1nncc(-c2cnnc(OCCN(C)C)n2)n1

IC50 (Plasmodium falciparum [1]): 0.011 µM
Structure (SMILES): CCCOc1nncc(-c2cnnc(SCCN(C)C)n2)n1

IC50 (Plasmodium falciparum [1]): 0.0044 µM
Structure (SMILES): CSc1nncc(-c2cnnc(SCCCN=[N+]=[N-])n2)n1
